Source: US10669242B2 (priority 2016, dated 2020)

Legend:
[1] = Plasma concentrations in the murine C. difficile toxin model (LC/MS); format: in vivo; settings: mice, over four hours
Protocol: We monitored the plasma concentrations of Example 6a following the IR, PO and IP administrations in the murine C. difficile toxin model (Example 63). Plasma concentrations of Example 6a were determined with the use of high pressure liquid chromatography (HPLC) and mass spectrometry (MS) following the administration of Example 6a. Plasma concentration curve of Example 6a was plotted over four hours (FIG. 5). […] It is noted that reduction of the IL-1β and MPO levels as well as improved colon histopathology correlates with the plasma concentrations of Example 6a.
To determine plasma concentration of compounds, blood (˜200 μl) was drawn by retro-orbital bleed, and compound concentration was determined by liquid chromatography (LC)/mass spectrometry (MS)(AB Sciex API-3000 LC/MS/MS system).

[2] = test system: C. difficile strain VPI 10463; experiment: Acute murine C. difficile infection model; format: in vivo, C57BL/6 mice; settings: for weight loss, time course: acute infection, days after infection, 8 animals per group
Excerpt: In a hospital environment, C. difficile infection occurs when the patient receives an antibiotic treatment that disrupts the normal gut microflora and is exposed to C. difficile spores. The patient often fails to mount a protective immune response against the acute C. difficile infection. (Rupnik, Wilcox et al. 2009). To study the acute C. difficile infection, we established a murine C. difficile infection model. Details of the infection model are provided in the “Experimental Protocol” (below).
In brief, female C57BL/6 mice were administered the following antibiotics: colistin (0.042 units/mL), gentamicin (0.035 mg/mL), kanamycin (0.4 mg/mL), metronidazole (0.215 mg/mL) and vancomycin (0.045 mg/mL) in drinking water for 3 days. The administered antibiotics disrupted the normal gut microflora in mice. On the 4th day, mice received oral administration of 0.5 mL volume containing ˜100 spores produced from a virulent clinical C. difficile isolate (strain VPI 10463). In this acute murine C. difficile infection model, we observed a similar time course of infection when compared to that of clinical patients.
Using the developed murine C. difficile infection model (Example 67), we evaluated our test compounds for their efficacy in reducing weight loss and gut inflammation caused by the acute C. difficile infection. We tested the efficacy of Example 6a and Example 5ae and used eight (8) animals in each group.
We further tested the efficacy of the Example 6a, Example 5ae, Example 4cl, and Example 5al compounds by PO administration. Vancomycin was used as a positive control. Three (3) experiments were performed utilizing a total of five (5) to sixteen (16) animals in each group.
C. difficile strain VPI 10463 was grown for four (4) days in 10 ml of BHI in a Bactron anaerobic workstation (Shel Lab). The culture was centrifuged at 2,700 g for 10 minutes. The bacterial pellet was washed with 10 mL of PBS and the centrifugation was repeated. The pellet was then re-suspended in 10 mL of PBS, incubated at 56° C. for 10 minutes, and then was frozen at −20° C. until used. Titers of spore stocks were determined by serial dilution and plating onto BHI and with 1% taurocholate and counting of colonies after incubation for 24 hours at 37° C. using the GasPak EZ Anaerobe Pouch System.
We utilized an established C. difficile murine infection model (Chen, Katchar et al. 2008). To render them susceptible to infection, female C57BL/6 mice (˜10 weeks old and weighing ˜20 g) were administered the following antibiotics (Sigma Aldrich) in drinking water for 3 days (Days −6 to −3): colistin (0.042 units/mL), gentamicin (0.035 mg/mL), kanamycin (0.4 mg/mL), metronidazole (0.215 mg/mL) and vancomycin (0.045 mg/mL). Based upon an expected water consumption of 100 mL/kg/day, the approximate doses of these antibiotics will be as follows: colistin (4.2 units/kg/day), gentamicin (3.5 mg/kg/day), kanamycin (40 mg/kg/day), metronidazole (21.5 mg/kg/day) and vancomycin (4.5 mg/kg/day). The animals were provided with regular drinking water for two days (Day −2 and Day −1), and the next day (Day 0) they were administered clindamycin phosphate (1 mg/mL solution in PBS) at 10 mL/kg by intraperitoneal injection, for a final dose of 10 mg/kg body weight. The following day (Day 1), they were orally gavaged with ˜100 spores in a 0.5 ml volume.
Compounds were administered beginning ˜8 hours after infection, and the animals were dosed twice per day for two days (Days 2-3) with a total of four doses. Compounds were prepared as 5 mg/mL suspensions in 20% PEG-400, 0.4% carboxymethyl cellulose and 0.2% Tween 80 and administered at a dose of 10 mL/kg, for a final dose of 50 mg/kg body weight.
Animals were observed and weighed two (2) to (3) times daily. Animals that were obviously moribund or had lost >20% of their initial body weight were euthanized. Sub-groups of animals were euthanized four (4) hours after the final compound dose (52 hours after infection). […]

[3] = test system: C. difficile strain 630; format: in vivo, Golden Syrian hamsters

SMILES	plasma concentration ([1]; IP administration, compared to IR)	plasma concentration ([1]; IR administration)	plasma concentration ([1]; PO administration, compared to IR)	weight loss, time course [2]	survival until Day 10 ([3]; Example 5ae 50 mg/kg PO twice per day for 7 days)	median survival time / protection from mortality ([3]; PO twice per day, Example 5ae 50 mg/kg 7 days, vancomycin 5 mg/kg 5 days)	toxin effect on colon length ([2]; PO, 52 hours after infection)
COc1ccc(NC(=O)c2ccc(CN3C(=O)c4ccc(Cl)cc4NC(=O)[C@H]3Cc3ccccn3)cc2F)nc1 [Example 6a, (R)-4-((8-Chloro-2,5-dioxo-3-(pyridin-2-ylmethyl)-2,3-dihydro-1H-benzo[e][1,4]diazepin-4(5H)-yl)methyl)-2-fluoro-N-(5-methoxypyridin-2-yl)benzamide]	significantly higher plasma concentrations	low plasma concentrations	significantly higher plasma concentrations	significantly reduced weight loss 2.25, 2.5 and 3.0 days after infection	–	–	–
O=C(Nc1ccc(C(F)(F)F)cn1)c1ccc(CN2C(=O)c3ccc(Cl)cc3NC(=O)[C@H]2Cc2ccccn2)cc1Cl [Example 5ae, (R)-2-Chloro-4-((8-chloro-2,5-dioxo-3-(pyridin-2-ylmethyl)-2,3-dihydro-1H-benzo[e][1,4]diazepin-4(5H)-yl)methyl)-N-(5-(trifluoromethyl)pyridin-2-yl)benzamide]	–	–	–	significantly reduced weight loss 2.5 and 3.0 days after infection	70%	significantly improved the median survival time	significantly reduced the toxin effect on colon length
